Assay [1] deals with JAK2-pSTAT5 (GM-CSF induced pSTAT5). In words: GM-CSF induced pSTAT5 in human PBMC. The class given is cell-based. The conditions noted are these: 20 min, 5 ng/mL GM-CSF for 20 minutes, legend words it as IC50. Here is the method:
(§1) Human PBMC are isolated from buffy coat and are stored frozen for assays as needed. Cells for assay are thawed and resuspended in complete media containing serum, then cells are diluted to 1.67 E6 cells/ml so that 120 ul per well is 200,000 cells. 15 ul of compound or DMSO is added to the well at the desired concentrations and incubated at 1 hr at 37 C. 15 ul of stimulus (final concentration of 1.7 ng/mL IL-12) is added for 30 minutes prior to pSTAT4 and total STAT4 analysis using cell lysates prepared and analyzed by MSD reagents as per manufacturer protocol. The final DMSO concentration of compound in the assay is 0.1%.
Cells are prepared for analysis as in the above procedure and 15 ul of GM-CSF (final concentration 5 ng/mL) is added for 20 minutes prior to pSTAT5 and total STAT5 analysis using cell lysates prepared and analyzed by MSD reagents as per manufacturer protocol. The final DMSO concentration of compound in the assay is 0.1%.

For assay [2], the system named is Tyk2-pSTAT4 (IL-12 induced pSTAT4). In words: IL-12 induced pSTAT4 in human PBMC. The class given is cell-based. The conditions noted are these: 0.5 h, 1.7 ng/mL IL-12 for 30 minutes, legend words it as IC50. On the procedure: as §1
In assay [3] the target is JAK2 (Invitrogen) kinase (Homo sapiens (Human), UniProt O60674). In words: JAK2 radioactive kinase assay. The class given is biochemical. The conditions noted are these: ATP at 10 μM. On the procedure:
Peptide substrate, [KKSRGDYMTMQIG], (20 μM) is prepared in reaction buffer (20 mM Hepes pH 7.5, 10 mM MgCl2, 1 mM EGTA, 0.02% Brij35, 0.02 mg/mL BSA, 0.1 mM […], 2 mM DTT, 1% DMSO. TYK2 (Invitrogen) kinase is added, followed by compounds in DMSO. ^33PATP is added to initiate the reaction with ATP at 10 μM. Kinase reaction is incubated for 120 min at room temp and reactions are spotted onto P81 ion exchange paper (Whatman #3698-915), and then washed extensively in 0.75% phosphoric acid, prior to reading the radioactivity counts. For JAK2 (Invitrogen) kinase assay the peptide substrate poly[Glu:Tyr](4:1), 0.2 mg/ml is used, in the reaction carried out the same as for TYK2.

We go through three compounds from patent publication US11434240B2, “TYK2 inhibitors and uses thereof” (Nimbus Lakshmi, Inc., priority 2015, dated 2022).

Sequence of JAK2 (Invitrogen) kinase (O60674 whole entry): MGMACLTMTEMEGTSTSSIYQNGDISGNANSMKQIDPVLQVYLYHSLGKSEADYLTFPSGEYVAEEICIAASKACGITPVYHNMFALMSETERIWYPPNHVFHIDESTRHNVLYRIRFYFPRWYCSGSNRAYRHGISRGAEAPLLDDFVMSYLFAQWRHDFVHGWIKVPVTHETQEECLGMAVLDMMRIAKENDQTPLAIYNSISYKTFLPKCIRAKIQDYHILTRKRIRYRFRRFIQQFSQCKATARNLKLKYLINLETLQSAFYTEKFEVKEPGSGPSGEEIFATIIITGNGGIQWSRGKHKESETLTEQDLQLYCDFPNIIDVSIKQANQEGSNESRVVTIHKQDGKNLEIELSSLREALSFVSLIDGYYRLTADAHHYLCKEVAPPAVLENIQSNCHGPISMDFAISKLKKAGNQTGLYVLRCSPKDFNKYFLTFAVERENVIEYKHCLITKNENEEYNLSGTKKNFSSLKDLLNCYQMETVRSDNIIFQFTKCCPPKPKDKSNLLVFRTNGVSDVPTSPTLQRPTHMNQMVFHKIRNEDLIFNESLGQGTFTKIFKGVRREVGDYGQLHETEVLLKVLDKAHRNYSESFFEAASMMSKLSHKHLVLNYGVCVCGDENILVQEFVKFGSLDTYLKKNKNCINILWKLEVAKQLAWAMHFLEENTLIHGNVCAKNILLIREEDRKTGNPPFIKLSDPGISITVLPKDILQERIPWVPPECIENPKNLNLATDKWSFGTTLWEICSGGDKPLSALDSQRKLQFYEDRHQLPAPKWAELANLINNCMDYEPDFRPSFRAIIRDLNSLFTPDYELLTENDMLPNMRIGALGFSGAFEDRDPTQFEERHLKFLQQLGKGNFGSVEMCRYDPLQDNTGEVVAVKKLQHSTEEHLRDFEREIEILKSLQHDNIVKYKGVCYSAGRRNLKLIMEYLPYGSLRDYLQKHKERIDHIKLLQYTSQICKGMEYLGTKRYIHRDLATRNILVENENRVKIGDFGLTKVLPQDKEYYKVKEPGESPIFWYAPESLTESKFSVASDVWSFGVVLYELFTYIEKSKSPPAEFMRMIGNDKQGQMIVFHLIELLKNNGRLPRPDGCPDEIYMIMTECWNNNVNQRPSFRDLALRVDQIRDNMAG

In assay [1], `CN1CCN(c2ccn(-c3cc(-c4c(F)cccc4F)nc4c3C(=O)NC4)n2)CC1` [I-5, 2-(2,6-difluorophenyl)-4-(3-(4-methylpiperazin-1-yl)-1H-pyrazol-1-yl)-6,7-dihydro-5H-pyrrolo[3,4-b]pyridin-5-one] displayed a concentration for a half-maximal effect (EC50) of more than 2000 nM.

Consider `N#Cc1cccc(F)c1-c1cc(-n2ccc(N3CCC(N4CCOCC4)CC3)n2)c2c(n1)CNC2=O` [I-59, 3-fluoro-2-(4-(3-(4-morpholinopiperidin-1-yl)-1H-pyrazol-1-yl)-5-oxo-6,7-dihydro-5H-pyrrolo[3,4-b]pyridin-2-yl)benzonitrile], for which the EC50 in assay [2] was in the range of 100 to 2000 nM; in assay [1] (Homo sapiens, PBMC) it was 100 to 2000 nM.

On to `CO[C@@H]1CN(c2ccn(-c3cc(-c4c(F)cccc4C#N)nc4c3C(=O)NC4)n2)C[C@@H]1O` [I-154, 3-fluoro-2-(4-(3-((3S,4R)-3-hydroxy-4-methoxypyrrolidin-1-yl)-1H-pyrazol-1-yl)-5-oxo-6,7-dihydro-5H-pyrrolo[3,4-b]pyridin-2-yl)benzonitrile], for which the Ki in assay [3] was in the range of 0.1 to 10 nM.

One may read the EC50 as the midpoint of the concentration-response curve. One may read the Ki as the equilibrium dissociation constant of an inhibitor or competing ligand from its target.
